How the values were obtained:
Format in all cases: cell-based
MDA-MB231 = assay: MTT assay, MDA-MB231 breast cancer cells; conditions: Homo sapiens, MDA-MB-231, MTT; for viability at 10 µM: 72 h after the treatment, mean of three independent experiments, read-out: Percentage of cell viability MDA-MB231; for GI50: 72 h, mean of three independent experiments ± SEM, read-out: GI50 (μM) ± SEM MDA-MB231
Procedure: (§1) The prepared compounds 1–126 were tested on three breast cancer cell lines namely, MDA-MB231, SKBR-3 and MCF-7 using MTT assay. SKBR-3 and MCF-7 cell lines are estrogen and progesterone hormone positive cell lines often used as a model for the hormone therapy.[18] MDA-MB231 is triple negative breast cancer cell line, which is negative to estrogen and progesterone receptors and human epidermal growth factor receptor 2, a perfect model for chemotherapy.[18] Initially, all the prepared compounds 1–126 were tested on these three cancer cell lines at the screening concentration (10 μM) and percentage of cell viability was calculated 72 h after the treatment (Table 1).
(§2) The growth inhibitory effect of the compounds was determined on breast tumor cell line (MDA-MB231, SKBR-3 and MCF-7) at different concentrations with methotrexate and nilotinib as positive controls (Table 2).
(§3) The cytotoxic activity of 6,N^2-diaryl-1,3,5-triazine-2,4-diamines (1–126) was evaluated against three breast carcinoma cell lines (MDA-MB231, SKBR-3, and MCF-7) and normal breast cell line (MCF-10A) by MTT assay.[22] All cells were obtained from the American Type Culture Collection and were grown in 10% fetal bovine serum and 1% pen-strep antibiotic supplemented media (DMEM for MDA-MB231 and SKBR-3, RPMI for MCF-7, and MEGM for MCF-10A). For MTT assay, 20 000 to 75 000 cells per mL (based on the doubling time for each cell line) were seeded in 96 well plates and incubated for 24 h at 37 °C in 5% CO2 incubator. Then, compounds at different concentrations were added followed by the incubation at 37 °C for 72 h. After that, MTT solution (0.5 mg mL^−1) was added and the plates were incubated for another 4 h. The supernatant was then discarded and 100 μL of DMSO was added to each well. The plates were then read by Tecan NanoQuant (model: infinite m200 pro) plate reader and absorbance was measured at 570 nm. GI50 values were calculated using sigmoidal concentration–response curves (see ESI ^†) generated using the GraphPad Prism 7 program. Three independent experiments were carried out and the data were represented as mean of the three experiments.

SKBR-3 = assay: MTT assay, SKBR-3 breast cancer cells; conditions: Homo sapiens, SK-BR-3, MTT; for viability at 10 µM: 72 h after the treatment, mean of three independent experiments, read-out: Percentage of cell viability SKBR-3
Procedure: as §1, §2, §3

MCF-7 = assay: MTT assay, MCF-7 breast cancer cells; conditions: Homo sapiens; for viability at 10 µM: MCF7, 10 μM, 72 h after the treatment, mean of three independent experiments, read-out: Percentage of cell viability MCF-7
Procedure: as §1, §2, §3

SMILES | viability at 10 µM (MDA-MB231) | viability at 10 µM (SKBR-3) | viability at 10 µM (MCF-7) | GI50 (MDA-MB231) | GI50 (MCF-7; MCF7, 72 h, mean of three independent experiments ± SEM) | GI50 (SKBR-3; 72 h, mean of three independent experiments ± SEM)
Nc1nc(Nc2ccccc2Cl)nc(-c2ccc(F)cc2)n1 [Compound 24] | 75% | 75% | 91% |  |  | 
COc1ccc(-c2nc(N)nc(Nc3ccc(OC(F)(F)F)cc3)n2)cc1 [Compound 79] | 74% | 84% | 95% |  |  | 
COc1ccc(-c2nc(N)nc(Nc3ccc(Br)cc3)n2)cc1 [Compound 76] | 96% | 100% | 91% |  |  | 
Cc1ccc(Nc2nc(N)nc(-c3ccc(Br)cc3)n2)cc1 [Compound 50] | 55% | 93% | 88% |  |  | 
Nc1nc(Nc2ccccc2)nc(-c2ccccc2)n1 [Compound 1] | 87% | 81% | 90% |  |  | 
CC(C)(C)c1ccc(-c2nc(N)nc(Nc3ccc(F)cc3)n2)cc1 [Compound 106] | 97% | 84% | 88% |  |  | 
Cc1ccc(-c2nc(N)nc(Nc3ccc(C(C)C)cc3)n2)cc1 [Compound 68] | 76% | 91% | 100% |  |  | 
Nc1nc(Nc2ccc(OC(F)(F)F)cc2)nc(-c2ccc(OCc3ccccc3)cc2)n1 [Compound 114] | 71% | 87% | 100% |  |  | 
Nc1nc(Nc2ccccc2Cl)nc(-c2ccccc2)n1 [Compound 4, N ^2-(2-Chlorophenyl)-6-phenyl-1,3,5-triazine-2,4-diamine] | 72% | 88% | 81% |  |  | 
Nc1nc(Nc2ccccc2)nc(-c2ccc(C(F)(F)F)cc2)n1 [Compound 82] | 55% | 97% | 96% |  |  | 
Nc1nc(Nc2ccc(Cl)cc2)nc(-c2ccccc2)n1 [Compound 5] | 65% | 94% | 100% |  |  | 
CN(Cc1cnc2nc(N)nc(N)c2n1)c1ccc(C(=O)N[C@@H](CCC(=O)O)C(=O)O)cc1 [Methotrexate, reference compound] |  |  |  | 0.01 ± 0.001 µM | 5.79 ± 0.47 µM | 
Nc1nc(Nc2ccc(Br)cc2)nc(-c2ccccc2)n1 [Compound 6] | 65% | 97% | 100% |  |  | 
Nc1nc(Nc2ccc(OC(F)(F)F)cc2)nc(-c2ccc(Cl)cc2)n1 [Compound 43] | 93% | 83% | 100% |  |  | 
CC(C)c1ccc(Nc2nc(N)nc(-c3cccs3)n2)cc1 [Compound 125] | 100% | 86% | 89% |  |  | 
Nc1nc(Nc2ccccc2)nc(-c2cccc(F)c2)n1 [Compound 13] | 100% | 100% | 89% |  |  | 
Cc1cccc(-c2nc(N)nc(Nc3ccc(C(C)C)cc3)n2)c1 [Compound 59, N ^2-(4-Isopropylphenyl)-6-(3-methylphenyl)-1,3,5-triazine-2,4-diamine] | 87% | 93% | 76% |  |  | 
Nc1nc(Nc2ccc(Cl)cc2)nc(-c2cccs2)n1 [Compound 119] | 100% | 89% | 98% |  |  | 
Nc1nc(Nc2ccccc2)nc(-c2ccc(OC(F)(F)F)cc2)n1 [Compound 89] | 59% | 90% | 95% |  |  | 
COc1ccc(Nc2nc(N)nc(-c3ccc(C(F)(F)F)cc3)n2)cc1 [Compound 88] | 81% | 86% | 100% |  |  | 
COc1ccccc1Nc1nc(N)nc(-c2ccc(Br)cc2)n1 [Compound 51] | 88% | 89% | 96% |  |  | 
Cc1cn(-c2cc(NC(=O)c3ccc(C)c(Nc4nccc(-c5cccnc5)n4)c3)cc(C(F)(F)F)c2)cn1 [Nilotinib, reference compound] |  |  |  | 0.04 ± 0.001 µM |  | 9.6 ± 0.51 µM

Reference: article PMC9050923, “6,N^2-Diaryl-1,3,5-triazine-2,4-diamines: synthesis, antiproliferative activity and 3D-QSAR modeling” (RSC Advances, 2020)
